Results from patent US20010051591A1, “Safening crops from the phytotoxic effects of herbicidally active N-phosphonomethyl-glycines” (priority 2000, published 2001).

Key:
Assay type in all cases: in vivo
[1] = system: two soybean varieties; assay: Example 1: average phytotoxic injury to the two soybean varieties; details: without Safening Composition A
Procedure: (§1) Glyphosate, tested as ROUNDUP® Ultra Herbicide (termed in Examples 1-3 as “Herbicidal Compound”), and COMMAND® 3 ME Herbicide comprised of at least one plant-safening, inorganic, water-soluble salt (calcium chloride), termed in Examples 1 and 2 as “Safening Composition A”, were tested as water solutions on two soybean varieties (Asgrow 2704 and Asgrow […]). The aforementioned solutions were sprayed in admixture as a tank mix onto flats of 12-day-old soybean plants arranged in a randomized, block design. There were four replicates for each rate of application. The soybean plants were evaluated at 21 days after treatment for percent phytotoxic injury by comparison to tests conducted on untreated plants and plants treated with Herbicidal Compound only. The rate of application clomazone for the Safening Composition A, and the rate of application of glyphosate for the Herbicidal Compound are expressed below in kg/ha.
For example, at the 0.2, 0.4, and 0.8 kg/ha rate of application of Herbicidal Compound, the average injury to the two soybean varieties is about 18%, 46%, and 70%, respectively.

[2] = system: Sorghum; assay: Example 2: phytotoxic injury to crops, tank mix spray; details: clomazone 0 kg/ha, 14 days after treatment
Procedure: as §1
(§2) As set forth in Example 2, the Herbicidal Compound and Safening Composition A were tested in the same manner as described in Example 1. The aforementioned Herbicidal Compound and Safening Composition A were sprayed as a tank mix onto 10-14 day old crop and weed species. The tests were evaluated at 14 days after treatment for percent injury by comparison to tests conducted on untreated plants and weeds, and plants and weeds treated with Herbicidal Compound only.

[3] = system: Rice; assay: as above; details: glyphosate 0.4 kg/ha, clomazone 0 kg/ha; 14 days after treatment
Procedure: as §1, §2

[4] = system: Pinto Bean; assay: as above; details: glyphosate 0.4 kg/ha, clomazone 0 kg/ha; 14 days after treatment
Procedure: as §1, §2

[5] = system: Cucumber; assay: as above; details: glyphosate 0.4 kg/ha, clomazone 0 kg/ha; 14 days after treatment
Procedure: as §1, §2

[6] = system: Tomato; assay: as above; details: clomazone 0 kg/ha, 14 days after treatment
Procedure: as §1, §2

[7] = system: Rape; assay: as above; details: glyphosate 0.8 kg/ha, clomazone 0 kg/ha; 14 days after treatment
Procedure: as §1, §2

[8] = system: Corn; assay: as above; details: glyphosate 0.8 kg/ha, clomazone 0 kg/ha; 14 days after treatment
Procedure: as §1, §2

[9] = system: soybean Variety A3234; assay: Example 1: phytotoxic injury to soybean, tank mix sprayed on 12-day-old plants; details: clomazone 0 kg/ha, 21 days after treatment
Procedure: (§3) The aforementioned solutions were sprayed in admixture as a tank mix onto flats of 12-day-old soybean plants arranged in a randomized, block design. There were four replicates for each rate of application. The soybean plants were evaluated at 21 days after treatment for percent phytotoxic injury by comparison to tests conducted on untreated plants and plants treated with Herbicidal Compound only. The rate of application clomazone for the Safening Composition A, and the rate of application of glyphosate for the Herbicidal Compound are expressed below in kg/ha.

[10] = system: soybean variety Asgrow 2704; assay: as above; details: clomazone 0 kg/ha, 21 days after treatment
Procedure: as §3

In the case of `O=C(O)CNCP(=O)(O)O` [Herbicidal Compound, Glyphosate], the “average injury to the two soybean varieties” value (shortened to “average injury”) ([1]; glyphosate 0.2 kg/ha) is reported as “about 18%”, the “average injury” value ([1]; glyphosate 0.4 kg/ha) is reported as roughly 46% and the “average injury” value ([1]; glyphosate 0.8 kg/ha) is reported as roughly 70%. For the same compound, the “Percent Phytotoxic Injury Sorghum” value ([2]; glyphosate 0.4 kg/ha) was 76%, the “Percent Phytotoxic Injury Sorghum” value ([2]; glyphosate 0.8 kg/ha) was 100% and the “Percent Phytotoxic Injury Rice” value [3] was 65%. For the same compound, the “Percent Phytotoxic Injury Pinto Bean” value [4] was 63%, the “Percent Phytotoxic Injury Cucumber” value [5] was 77% and the “Percent Phytotoxic Injury Tomato” value ([6]; glyphosate 0.2 kg/ha) was 95%. The “Percent Phytotoxic Injury Tomato” value ([6]; glyphosate 0.4 kg/ha) was 100%, the “Percent Phytotoxic Injury Rape” value [7] was 84% and the “Percent Phytotoxic Injury Corn” value [8] was 90%. For the same compound, the “Percent Phytotoxic Injury To Soybean Variety A3234” value ([9]; glyphosate 0.2 kg/ha) was 22%, the “Percent Phytotoxic Injury To Soybean Variety A3234” value ([9]; glyphosate 0.4 kg/ha) was 54% and the “Percent Phytotoxic Injury To Soybean Variety A3234” value ([9]; glyphosate 0.8 kg/ha) was 81%. For the same compound, the “Percent Phytotoxic Injury To Soybean Variety A2704” value ([10]; glyphosate 0.2 kg/ha) was 14%, the “Percent Phytotoxic Injury To Soybean Variety A2704” value ([10]; glyphosate 0.4 kg/ha) was 38% and the “Percent Phytotoxic Injury To Soybean Variety A2704” value ([10]; glyphosate 0.8 kg/ha) was 60%.
